# Reference: patent US20040023314A1, “Mutant fibronectin and tumor metastasis” (Baylor College of Medicine, priority 2002, published 2004)
# System: 1143 mel tumor cells
# Assay: Migration assay (matrigel)
# Assay type: cell-based, human
# Conditions: 1143 mel cells stably expressing the construct, 48 h
# Description: 2.5×10^4 1143 mel tumor cells and transfected tumor cells were seeded into the upper chamber with 0.75 ml of RPMI-1640 serum-free medium in BIOCOAT […] Cells (Becton Dickinson, San Jose, Calif.). The bottom chamber contained 0.75 ml of RPMI-1640 serum-free medium (control medium) or 0.75 ml of RPMI-1640/10% FCS (complete medium). After incubation at 37° C. and 5% CO2 for 48 h, Cells in the lower chambers were fixed in 4% formaldehyde in PBS at room temperature for 20 min, stained with crystal violet, and examined and counted from four different fields under a compound microscope.
# The migratory ability of these cell lines expressing wild type or mutant FN was further evaluated. […] To rule out clonal variation, similar experiments were repeated with four sets of independent tumor cell clones expressing either wild-type, mutant FN or empty vector. […] The P-value for significant difference is 0.0007 among the two comparison groups of cell clones expressing mutant FN and other cell clones expressing either wild-type FN, empty vector. There were no statistically significant differences among groups of parental 1143 mel and its derivative clones expressing wild-type or empty vector.
substance,measurement,value
wild-type FN: wild-type fibronectin,migration from chamber with control medium to chamber with complete medium,little or no migration
mutant FN: mutated fibronectin with Glu to Lys substitution at position 2053,migration from chamber with control medium to chamber with complete medium,enhanced migration ability
